Measured values from article PMC10703812, “Understanding the molecular mechanisms of odorant binding and activation of the human OR52 family” (Nature Communications, 2023).
“And” between values parts separate entries of the source, which are not always exact repeats. Equal entries are not always repeated.

What was measured:
OR52cs ΔN(1–18) = assay: cAMP signaling assay, N-tail deletion mutant; format: cell-based, human; settings: Fig. 2c
Description: (§1) For cAMP assay, CRE luciferase assay, and surface ELISA, the full-length OR52cs construct was cloned into the pcDNA3.1 vector. The Lucy signal sequence and FLAG peptide sequence were added to the N-terminus. Mutant constructs were generated by site-directed mutagenesis. For BRET assay, eYFP was added at the C-terminus of OR52cs with a GGGGS linker. Rluc was added to Gα for resonance partner (after L99 for Gαs, and I100 for Gαolf, respectively, with GGGGS linker back and forth).
(§2) Hana3A cells were seeded on 96-well white microplates and transfected with OR52cs or the corresponding mutants and cAMP sensor (Promega). The medium was exchanged with CO2-independent medium (Gibco) supplemented with 0.375 mg ml^−1 D-luciferin (Nanolight) 48 h after infection, and cells were incubated in the dark at 20 °C for 2 h. Basal luminescence was detected using a Tristar 2 LB 942 multimode reader (Berthold) until it reached a plateau. Subsequently, various concentrations of odorants and forskolin (Sigma-Aldrich) were added to each well, and luminescence was measured again. Data were analyzed and plotted using GraphPad Prism 9.4.1.

OR52cs / Gαolf = assay: BRET assay, G protein recruitment to OR52cs; format: cell-based, human; settings: 500 µM OCA; Gαolf-Rluc; Fig.S2a, single experiments; listed as OCA
Description: as §1
(§3) All signaling assays were performed in Hana3A cells, which were kindly provided by Dr. Matsunami. Cells were seeded on 6-well clear plate (SPL) and co-transfected with OR52cs-eYFP, Gαs-Rluc or Gαolf-Rluc, Gβ1 and Gγ2 at a 5:1:1:1 ratio. 48 h after infection, cells were collected and resuspended with PBS. 500 μM of OCA was treated to the cells, and cells were transferred to 96-well white microplate (SPL). Coelenterazine H (Nanolight) was added to each well at a final concentration of 10 μM and luminescence was measured using a Tristar 2 LB 942 multimode reader (Berthold). Data were analyzed using GraphPad Prism 9.4.1.

OR52cs / Gαs = assay: BRET assay, G protein recruitment to OR52cs; format: cell-based, human; settings: 500 µM OCA; Gαs-Rluc; Fig.S2a, single experiments; listed as OCA
Description: as §1, §3

[1] = system: pcDNA (Null) Hana3A cells; assay: cAMP signaling assay, no receptor (Null / pcDNA); format: cell-based; design: cAMP response: unit not given here; settings: single experiments; for cAMP response: Fig.S11a source data
Description: as §2

OR52cs-bRIL-ICL3 = assay: cAMP signaling assay, bRIL chimera; format: cell-based, human; design: cAMP response: scale not given here; settings: for cAMP response: Fig.S11a source data
Text: For the structural study of apo state OR52cs, the chimeric construct of full-length OR52cs (1–313)[23] was designed to insert bRIL between A226 and L227 with a linker sequence derived from adenosine receptor A2a, as previously described. For purification of active state OR52cs, full-length OR52cs (1–313) was used. Each construct was subcloned into the pFastBac HT B vector with a Lucy signal sequence ([…])[17] and FLAG peptide at the N-terminus. Each construct also included an eGFP with 10xHis-tag, which was fused to the C-terminus of OR52cs with a HRV 3C protease cleavage sequence.
as §2

OR52cs D212A = assay: cAMP signaling assay, mutant; format: cell-based, human; design: scale not given here; settings: Fig.S13b source data, single experiments
Description: as §1, §2

OR52cs Y282A = assay: cAMP signaling assay, mutant; format: cell-based, human; settings: odorant 0.001 M; Fig.S13b source data, single experiments
Description: as §1, §2

[2] = system: OR52cs F14A / F96A / F170A; assay: cAMP signaling assay, mutant; format: cell-based, human
Description: as §1, §2

OR52cs H183A = assay: cAMP signaling assay, mutant; format: cell-based, human; settings: for cAMP response: Fig.3d source data, single experiments
Description: as §1, §2

OR52cs V158F/V209M = assay: cAMP signaling assay, mutant; format: cell-based, human; settings: for cAMP response: Fig.S8b source data, single experiments
Description: as §1, §2

OR52cs V158F = assay: cAMP signaling assay, mutant; format: cell-based, human; settings: for cAMP response: Fig.S8b source data, single experiments
Description: as §1, §2

OR52cs G201V = assay: cAMP signaling assay, mutant; format: cell-based, human; settings: Fig. 3d
Description: as §1, §2

OR52cs H107A = assay: cAMP signaling assay, mutant; format: cell-based, human
Description: as §1, §2

OR52cs R265A = assay: cAMP signaling assay, mutant; format: cell-based, human
Description: as §1, §2

For `CCCCCCCC(=O)O` [Octanoate, octanoic acid], the “downstream signaling (in words)” value (OR52cs ΔN(1–18)) was “loss of downstream signaling”, the “ΔBRET (OCA- minus vehicle-treated BRET signal)” value (OR52cs / Gαolf) was 0.01011 and 0.01399 and 0.007869 and 0.00957 and 0.01164 and the “ΔBRET (OCA- minus vehicle-treated BRET signal)” value (OR52cs / Gαs) was 0.0184 and 0.01592 and 0.01247 and 0.01013 and 0.01218. For the same compound, the cAMP response ([1]; odorant 9.18274e-8 M) was 2.6643 and 2.911 and 3.873 and 3.399, the cAMP response ([1]; odorant 9.18274e-7 M) was 2.569 and 3.588 and 3.415 and 3.589 and the cAMP response ([1]; odorant 9.18274e-6 M) was 2.895 and 3.57 and 4.047 and 4.019. For the same compound, the cAMP response ([1]; odorant 3.0303e-5 M) was 3.574 and 3.7923 and 3.945 and 4.033, the cAMP response ([1]; odorant 0.0001 M) was 3.1425 and 4.269 and 3.81 and 3.981 and the “cAMP response (raw signal) upon OCA treatment” value ([1]; odorant 0.001 M (1 mM OCA), Fig.S11a left, listed as Octanotae) was 10538 and 15823 and 16065 and 17585. For the same compound, the cAMP response ([1]; odorant 0.001 M) was 4.161 and 5.018 and 6.3304 and 6.191, the “OCA-induced activity (in words)” value (OR52cs-bRIL-ICL3; Supplementary Fig. 11) was “neither basal activity nor OCA-induced activity” and the cAMP response (OR52cs-bRIL-ICL3; odorant 9.18274e-8 M, single experiments) was 2.864 and 3.4309 and 3.889 and 3.292. The cAMP response (OR52cs-bRIL-ICL3; odorant 9.18274e-7 M, single experiments) was 3.793 and 3.523 and 3.621 and 3.789, the cAMP response (OR52cs-bRIL-ICL3; odorant 9.18274e-6 M, single experiments) was 3.871 and 2.869 and 3.568 and 3.2862 and the cAMP response (OR52cs-bRIL-ICL3; odorant 3.0303e-5 M, single experiments) was 3.732 and 3.68 and 3.466 and 3.76. The cAMP response (OR52cs-bRIL-ICL3; odorant 0.0001 M, single experiments) was 4.827 and 3.799 and 4.225 and 4.217, the “cAMP response (raw signal) upon OCA treatment” value (OR52cs-bRIL-ICL3; odorant 0.001 M (1 mM OCA), Fig.S11a left, single experiments, listed as Octanotae) was 8475 and 9202 and 7849 and 10195 and the cAMP response (OR52cs-bRIL-ICL3; odorant 0.001 M, single experiments) was 5.645 and 5.075 and 5.021 and 7.052. The cAMP response (OR52cs D212A; odorant 9.18274e-6 M) was 0.5276 and 0.521 and 1.015, the cAMP response (OR52cs D212A; odorant 3.0303e-5 M) was 0.9753 and 0.9567 and 1.328 and the cAMP response (OR52cs D212A; odorant 0.0001 M) was 4.038 and 3.668 and 3.274. For the same compound, the cAMP response (OR52cs D212A; odorant 0.001 M) was 42.8474 and 43.8072 and 40.1115, the cAMP response (OR52cs Y282A) was 0.7944 and 0.7429 and 0.9514 and the “cAMP response (in words)” value ([2]; Fig. 2c) was “significantly reduced cAMP response”. The “X-fold over OR52cs (relative fold of EC50)” value ([2]; Supplementary Table 3) was 26.3, the EC50 ([2]; Supplementary Table 3, N=3) was 208 µM and the EC50 (OR52cs H183A; Supplementary Table 3, N=3) was 41.4 µM. For the same compound, the “pEC50 ± SEM” value (OR52cs H183A; Supplementary Table 3, N=3) was 4.154 ± 0.087, the cAMP response (OR52cs H183A; odorant 0.0001 M) was 48.2985 and 50.8568 and 78.4687 and the cAMP response (OR52cs H183A; odorant 0.001 M) was 61.0348 and 75.0061 and 91.5473. For the same compound, the “response / preference (in words)” value (OR52cs V158F/V209M; Supplementary Fig. 8) was “preference for OCA was maintained”, the cAMP response (OR52cs V158F/V209M; odorant 9.18274e-8 M) was 1.119% and 0.2182% and 0.3359% and 1.739% and the cAMP response (OR52cs V158F/V209M; odorant 9.18274e-7 M) was 6.95% and 4.269% and 3.744% and 7.839% and 6.948%. The cAMP response (OR52cs V158F/V209M; odorant 9.18274e-6 M) was 37.3813% and 30.814% and 31.4615% and 45.1116% and 40.3488%, the cAMP response (OR52cs V158F/V209M; odorant 3.0303e-5 M) was 96.8852% and 89.0601% and 97.4121% and 90.3953% and 94.2682% and the cAMP response (OR52cs V158F/V209M; odorant 0.0001 M) was 87.6893% and 101.186% and 102.533% and 86.5504% and 88.6049%. For the same compound, the cAMP response (OR52cs V158F/V209M; odorant 0.001 M) was 79.2271% and 94.3185% and 104.414% and 103.193% and 74.9407%, the “downstream signal / selectivity (in words)” value (OR52cs V158F; Supplementary Fig. 8) was “greatly reduced the downstream signal” and the cAMP response (OR52cs V158F; odorant 9.18274e-8 M) was -0.2745% and -0.4519% and -0.2741%. For the same compound, the cAMP response (OR52cs V158F; odorant 9.18274e-7 M) was -1.206% and -1.168% and -3.0916%, the cAMP response (OR52cs V158F; odorant 9.18274e-6 M) was 1.8013% and 0.5178% and -1.853% and the cAMP response (OR52cs V158F; odorant 3.0303e-5 M) was 11.8948% and 7.17% and 7.559%. For the same compound, the cAMP response (OR52cs V158F; odorant 0.0001 M) was 32.9355% and 23.3075% and 28.8455%, the cAMP response (OR52cs V158F; odorant 0.001 M) was 85.6572% and 61.8428% and 79.0275% and the “downstream signaling (in words)” value (OR52cs G201V) was “loss of OCA signaling”. The “downstream signaling (in words)” value (OR52cs H107A; Fig. 3d) was “significantly reduced downstream signaling”, the “X-fold over OR52cs (relative fold of EC50)” value (OR52cs H107A; Supplementary Table 3) was 23.7 and the EC50 (OR52cs H107A; Supplementary Table 3, N=3) was 187 µM. The cAMP response (OR52cs H107A; odorant 9.18274e-7 M, Fig.3d source data, single experiments) was 2.018 and 1.83 and 1.279, the “downstream signaling (in words)” value (OR52cs R265A; Fig. 3d) was “complete loss of downstream signaling” and the cAMP response (OR52cs R265A; odorant 9.18274e-6 M, Fig.3d source data, single experiments) was 1.026 and 1.808.
